Test results: PubChem BioAssay AID248 (DTP/NCI, 2004)
Values joined by “and” are separate entries in the source; they are usually repeats but may differ in a detail not shown here. Identical values can stand only once. Toxic doses and inconclusive results are not listed. Rule as the data show it: active = T/C of 150% or more; inactive = T/C below 125%.

Test system: L1210 leukemia ip in BDF1 mice, survival T/C
Experiment: NCI In Vivo Anticancer Drug Screen. Data for tumor model L1210 Leukemia (intraperitoneal) in B6D2F1 (BDF1) mice
Settings: endpoint: mean survival time, higher = longer survival
Outline: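 Read-out is survival time, reported as the treated-group measurement over the vehicle-control measurement.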

[1] = dose: 100.0 mg/kg/injection, schedule: Q01DX009 (ip), vehicle: Klucel (hydroxypropylcellulose) (HPC)
[2] = dose: 200.0 mg/kg/injection, schedule: Q01DX009 (ip), vehicle: Klucel (hydroxypropylcellulose) (HPC)
[3] = dose: 400.0 mg/kg/injection, schedule: Q01DX009 (ip), vehicle: Klucel (hydroxypropylcellulose) (HPC)
[4] = dose: 100.0 mg/kg/injection, schedule: Q04DX002 (ip), vehicle: saline
[5] = dose: 200.0 mg/kg/injection, schedule: Q04DX002 (ip), vehicle: saline
[6] = dose: 400.0 mg/kg/injection, schedule: Q04DX002 (ip), vehicle: saline
[7] = dose: 50.0 mg/kg/injection, schedule: Q01DX009 (ip), vehicle: Klucel (hydroxypropylcellulose) (HPC)
[8] = dose: 100.0 mg/kg/injection, schedule: Q01DX001 (ip), vehicle: saline
[9] = dose: 200.0 mg/kg/injection, schedule: Q01DX001 (ip), vehicle: saline
[10] = dose: 100.0 mg/kg/injection, schedule: Q01DX001 (ip), vehicle: saline with Tween-80
[11] = dose: 200.0 mg/kg/injection, schedule: Q01DX001 (ip), vehicle: saline with Tween-80
[12] = dose: 400.0 mg/kg/injection, schedule: Q01DX001 (ip), vehicle: saline with Tween-80
[13] = dose: 100.0 mg/kg/injection, schedule: Q04DX002 (ip), vehicle: saline with Tween-80
[14] = dose: 200.0 mg/kg/injection, schedule: Q04DX002 (ip), vehicle: saline with Tween-80
[15] = dose: 400.0 mg/kg/injection, schedule: Q04DX002 (ip), vehicle: saline with Tween-80
[16] = dose: 100.0 mg/kg/injection, schedule: Q04DX003 (ip), vehicle: saline with Tween-80
[17] = dose: 200.0 mg/kg/injection, schedule: Q04DX003 (ip), vehicle: saline with Tween-80
[18] = dose: 50.0 mg/kg/injection, schedule: Q04DX003 (ip), vehicle: saline
[19] = dose: 100.0 mg/kg/injection, schedule: Q04DX003 (ip), vehicle: saline
[20] = dose: 100.0 mg/kg/injection, schedule: Q04DX002 (ip), vehicle: Klucel (hydroxypropylcellulose) (HPC)
[21] = dose: 200.0 mg/kg/injection, schedule: Q04DX002 (ip), vehicle: Klucel (hydroxypropylcellulose) (HPC)
[22] = dose: 400.0 mg/kg/injection, schedule: Q04DX002 (ip), vehicle: Klucel (hydroxypropylcellulose) (HPC)
[23] = dose: 50.0 mg/kg/injection, schedule: Q01DX009 (ip), vehicle: saline with Tween-80
[24] = dose: 100.0 mg/kg/injection, schedule: Q01DX009 (ip), vehicle: saline with Tween-80
[25] = dose: 200.0 mg/kg/injection, schedule: Q01DX009 (ip), vehicle: saline with Tween-80
[26] = dose: 400.0 mg/kg/injection, schedule: Q04DX003 (ip), vehicle: saline with Tween-80
[27] = dose: 100.0 mg/kg/injection, schedule: Q04DX003 (ip), vehicle: Klucel (hydroxypropylcellulose) (HPC)
[28] = dose: 200.0 mg/kg/injection, schedule: Q04DX003 (ip), vehicle: Klucel (hydroxypropylcellulose) (HPC)

Measured: T/C

CCCC(=O)OCC
inactive: [1] 100 % of control | [2] 105 % of control | [3] 97 % of control

C/C=C/c1ccc(OC)cc1
inactive: [4] 104 % of control | [5] 104 % of control | [6] 97 % of control

CCO/C=N\c1c(C#N)c(CC#N)nn1-c1ccccc1
inactive: [7] 100 % of control | [1] 91 % of control | [2] 100 % of control

O=[N+]([O-])c1cccc(Cl)c1/C=N/Nc1nnc(N/N=C/c2c(Cl)cccc2[N+](=O)[O-])c2ccccc12
inactive: dose: 50.0 mg/kg/injection, schedule: Q01DX001 (ip), vehicle: saline 96 % of control | [8] 96 % of control | [9] 98 % of control | dose: 400.0 mg/kg/injection, schedule: Q01DX001 (ip), vehicle: saline 98 % of control

O=[N+]([O-])c1cccc(OCCCOc2ccc(S(=O)(=O)F)cc2)c1
inactive: [10] 96 % of control | [11] 98 % of control | [12] 90 % of control

[Si]c1ccccc1
inactive: [13] 102 % of control | [14] 93 % of control | [15] 98 % of control

Cc1ncc(CO)c(/C=N/OCc2ccc(OCc3ccccc3)cc2)c1O
inactive: [16] 102 % of control | [17] 100 % of control

Cc1cccc(C)c1N=C(N)NN
inactive: dose: 25.0 mg/kg/injection, schedule: Q01DX009 (ip), vehicle: saline 100 % of control | dose: 50.0 mg/kg/injection, schedule: Q01DX009 (ip), vehicle: saline 101 % of control | [18] 117 % of control | [8] 96 % of control | dose: 100.0 mg/kg/injection, schedule: Q01DX009 (ip), vehicle: saline 95 % of control | [19] 106 % of control | [9] 98 % of control

CN(C)CCSCCO
inactive: [4] 107 % of control | [5] 95 % of control | [6] 107 % of control

COc1ccc2nc(N=Nc3c(N)nc(N)nc3N)sc2c1
inactive: [8] 96 % of control | [9] 105 % of control

CC(Oc1cc(Cl)c(Cl)cc1Cl)C(=O)OCCCc1ccccn1 (stereo not given)
inactive: [7] 106 % of control | [1] 100 % of control and 111 % of control | [20] 103 % of control | [2] 114 % of control | [21] 107 % of control | [22] 90 % of control

CSc1ccc(NC(=O)Oc2cc3ccccc3cc2C(=O)Nc2ccccc2)cc1
inactive: [23] 97 % of control and 99 % of control | [10] 95 % of control | [24] 96 % of control and 86 % of control | [13] 100 % of control and 92 % of control | [16] 87 % of control | [11] 87 % of control | [25] 96 % of control and 90 % of control | [14] 98 % of control and 91 % of control | [17] 94 % of control | [12] 88 % of control | [15] 95 % of control | [26] 91 % of control

CC1(C)C2CCC1(C)C(COC(=O)c1cc([N+](=O)[O-])cc([N+](=O)[O-])c1)C2 (stereo not given)
inactive: [1] 100 % of control | [27] 104 % of control | [2] 92 % of control | [28] 100 % of control | [3] 89 % of control | dose: 400.0 mg/kg/injection, schedule: Q04DX003 (ip), vehicle: Klucel (hydroxypropylcellulose) (HPC) 102 % of control

CCCCC#CC(=O)OCCC(C)C
inactive: [16] 94 % of control | [17] 90 % of control | [26] 94 % of control

O=C(Nc1ccccc1)Oc1cccc2cccnc12
inactive: dose: 50.0 mg/kg/injection, schedule: Q04DX003 (ip), vehicle: Klucel (hydroxypropylcellulose) (HPC) 100 % of control | [27] 105 % of control | [28] 97 % of control

CC(=O)CCCN1C(=O)c2ccccc2C1=O
inactive: [24] 106 % of control | [16] 101 % of control | [25] 96 % of control | [17] 91 % of control | dose: 400.0 mg/kg/injection, schedule: Q01DX009 (ip), vehicle: saline with Tween-80 93 % of control | [26] 102 % of control

C=CCC(C(=O)OC)C(=O)C(C)(C)C (stereo not given)
inactive: [23] 100 % of control | [24] 92 % of control | [25] 100 % of control

CC(C)(O)/C=C/C(=O)[C@](C)(O)[C@H]1[C@H](O)C[C@@]2(C)[C@@H]3CC=C4[C@@H](C=C(O)C(=O)C4(C)C)[C@]3(C)C(=O)C[C@]12C
inactive: dose: 100.0 micrograms/kg/injection, schedule: Q01DX001 (sc), vehicle: steriod suspending solution 104 % of control | dose: 200.0 micrograms/kg/injection, schedule: Q01DX001 (sc), vehicle: steriod suspending solution 102 % of control | dose: 400.0 micrograms/kg/injection, schedule: Q01DX001 (sc), vehicle: steriod suspending solution 104 % of control | dose: 800.0 micrograms/kg/injection, schedule: Q01DX001 (sc), vehicle: steriod suspending solution 96 % of control

OC1(CCCc2ccccc2)CCNCC1
inactive: dose: 75.0 mg/kg/injection, schedule: Q01DX001 (ip), vehicle: saline 104 % of control | dose: 150.0 mg/kg/injection, schedule: Q01DX001 (ip), vehicle: saline 110 % of control

Nc1ccc(CCc2ccccc2)c(C(=O)O)c1
inactive: [18] 104 % of control | [19] 110 % of control | dose: 200.0 mg/kg/injection, schedule: Q04DX003 (ip), vehicle: saline 96 % of control

COC(=O)CC[S+](C)CCC(=O)OC
inactive: dose: 7.5 mg/kg/injection, schedule: Q04DX003 (ip), vehicle: saline 100 % of control | dose: 15.0 mg/kg/injection, schedule: Q04DX003 (ip), vehicle: saline 107 % of control | dose: 30.0 mg/kg/injection, schedule: Q04DX003 (ip), vehicle: saline 105 % of control

O=C(c1ccccc1)C1OC1(CBr)c1ccccc1 (stereo not given)
inactive: dose: 6.25 mg/kg/injection, schedule: Q01DX009 (ip), vehicle: alcohol 96 % of control | dose: 12.5 mg/kg/injection, schedule: Q01DX009 (ip), vehicle: alcohol 95 % of control | dose: 25.0 mg/kg/injection, schedule: Q01DX009 (ip), vehicle: alcohol 98 % of control | dose: 100.0 mg/kg/injection, schedule: Q01DX001 (ip), vehicle: Klucel (hydroxypropylcellulose) (HPC) 100 % of control | [1] 106 % of control | dose: 200.0 mg/kg/injection, schedule: Q01DX001 (ip), vehicle: Klucel (hydroxypropylcellulose) (HPC) 105 % of control | [2] 98 % of control | dose: 400.0 mg/kg/injection, schedule: Q01DX001 (ip), vehicle: Klucel (hydroxypropylcellulose) (HPC) 106 % of control | [3] 96 % of control

CSc1ccc(OC(=O)Nc2ccc(Cl)cc2)cc1C
inactive: dose: 100.0 mg/kg/injection, schedule: Q01DX001 (ip), vehicle: carboxymethylcellulose (CMC) 89 % of control | dose: 100.0 mg/kg/injection, schedule: Q01DX009 (ip), vehicle: carboxymethylcellulose (CMC) 97 % of control and 100 % of control | [20] 103 % of control | dose: 100.0 mg/kg/injection, schedule: Q04DX002 (ip), vehicle: carboxymethylcellulose (CMC) 106 % of control and 108 % of control | dose: 200.0 mg/kg/injection, schedule: Q01DX001 (ip), vehicle: carboxymethylcellulose (CMC) 102 % of control | dose: 200.0 mg/kg/injection, schedule: Q01DX009 (ip), vehicle: carboxymethylcellulose (CMC) 93 % of control and 97 % of control | [21] 98 % of control | dose: 200.0 mg/kg/injection, schedule: Q04DX002 (ip), vehicle: carboxymethylcellulose (CMC) 94 % of control and 108 % of control | dose: 400.0 mg/kg/injection, schedule: Q01DX001 (ip), vehicle: carboxymethylcellulose (CMC) 93 % of control | [22] 92 % of control | dose: 400.0 mg/kg/injection, schedule: Q04DX002 (ip), vehicle: carboxymethylcellulose (CMC) 95 % of control and 104 % of control

N/C(=N\[N+](=O)[O-])Nc1ccccn1
inactive: [20] 95 % of control | [21] 98 % of control | [22] 109 % of control

CCC(C)(c1ccc(O)cc1)c1ccc(O)cc1
inactive: [4] 103 % of control | [5] 97 % of control | [6] 103 % of control
